Reference: patent publication US20130090371A1, “METHODS AND COMPOSITIONS FOR INHIBITION OF BETA2-ADRENERGIC RECEPTOR DEGRADATION” (PRESIDENT AND FELLOWS OF HARVARD COLLEGE, priority 2010, published 2013)
d = 2'-deoxy (DNA)

Tests used:
cell surface β2AR [1] = experiment: Flowcytometry of cell surface β2AR in 293.β2AR^WT cells; format: cell-based, human
Method: (§1) Cell Culture, Transfection and Drug Treatments. […] Transfection of DNA into 293T cells was using FuGene 6 reagent (Roche) according to manufacturer's instruction. […] FDPS-specific siRNA (sense [NT], antisense [NT]) was from Sigma-Aldrich and the non-targeting Scrambled siRNA was from Thermo Scientific. […] Cells were washed with PBS and incubated with diluted TrypLE Express Enzyme (Invitrogen) (1:10 dilutio in PBS) for exactly 1 min at room temperature followed by adding regular medium immediately. […] Then cells were washed again and passed through cell strainers to remove cell clumps before being sorted on a FACS Aria multicolor high speed sorter (Becton Dickinson). During FACS analysis, the population of single cell was gated to measured FITC (green) signal. Background of auto-fluorescence was identified by plotting FITC with PE (red) or SSC (side scatter) signal. FITC-positive cells were collected in calcium and magnesium-free PBS with 20% FBS. Collected cells were cultured for repeating FACS sorting. […] The population of PI-negative single cell was gated to measured FITC signal.

cell surface β2AR [2] = experiment: Flowcytometry of cell surface β2AR in 293.β2AR* (recycle-deficient FLAG-β2AR, β2ARt) cells; format: cell-based, human
Method: as §1

cellular cholesterol = experiment: Cellular cholesterol measurement in 293.β2AR* cells; format: cell-based, human
Method: Error bars represented the standard deviations of replicates.
Cellular cholesterol measurement. 1×10^6 cells were cultured in each well of 6-well plates in DMEM containing 10% FBS for 3 d until fully confluent. Then drug treatments were performed in either DMEM containing 10% FBS or Opti-MEM without serum in duplicates. Cells were transferred to microcentrifuge tubes, washed twice with ice-cold PBS. Total lipids were extracted by resuspending and lysing cells in 300 μL of Chloroform: Isopropanol: Triton X-100 (7:11:0.1). The organic phase was collected after centrifugation at 12,000 rpm for 10 min and then evaporated at 50° C. for 3-4 h. Lipids were resuspend in 200 μL of Cholesterol Reaction buffer included in a commercial cholesterol measurement kit (Invitrogen) by votexing. Cholesterol was measured by the cholesterol oxidase method according to the manufacturer's directions. 2 or 4 measurements were taken for each replicate sample.

[3] = system: human airway smooth muscle cells; experiment: Optical Magnetic Twisting Cytometry (elastic modulus) of HASM cells; conditions: for decrease of stiffness compared to baseline: 1 mM isoproterenol, measured over 15 min
CaMKK2 = experiment: qRT-PCR of CaMKK2 mRNA in primary HASM cells; format: cell-based, human; conditions: 50 nM siRNA; three days after transfection
FDPS = experiment: Real-time RT-PCR of FDPS mRNA in 293β2AR* cells; format: cell-based, human; conditions: normalized to β-Actin
Method: FIGS. 4A-4D show FDPS regulates the amount of Cell Surface β2AR in 293βAR* cells. […]. […] Cells were transduced with Lentivirus expressing FDPS-specific shRNA or empty vector, or transfected with FDPS-specific siRNA or non-targeting Scrambled (SCR) siRNA. The RNA levels were determined by real time RT-PCR and normalized to that of β-Actin. Error bars represented the standard deviations of replicates. Statistic analysis was using student's t-test. […]. MFI: Mean fluorescence intensity.
Real-Time RT-PCR. Total RNA was isolated by using TRIzol (Invitrogen) and further cleaned up by using RNeasy Mini kit (Qiagen) with DNase I digestion. cDNA was synthesized by using oligo-dT primers and SuperScript III (Invitrogen). Real-time PCR was performed on ABI Prism 7300 with SYBR Green (Qiagene). The FDPS was amplified with primers FDPS-1F (5′-TGACCGGCAAAATTGGCACTGACAT-3′) (SEQ ID NO: 20) and FDPS-1R (5′-CCTTCACCCGGGCCACTTTCTCA-3′) (SEQ ID NO: 21). […]. The β-Actin control was amplified with primers (Forward, 5′-AAG GCC AAC CGC GAG AAG-3′ (SEQ ID NO: 28) and Reverse, 5′-GGC GTA CAG GGA TAG CAC-3′ (SEQ ID NO: 29)).

β2ARt = molecular target: T1, β2ARt (Homo sapiens, UniProt P07550); experiment: Immunoblot of agonist-induced β2AR degradation in 293β2AR* / β2ARt cells; format: cell-based; conditions: after 3 hours of agonist induction (10 μM isoproterenol); vs empty vector
T1 construct: a distally truncated form (after residue 385) of β2AR (β2ARt); expressed in transfected cells; host or cells: HEK293 (293.β2AR*)
Method: β2AR ubiquitination and degradation assays. Cells expressing […] or β2ARt were subjected to 10 μM ISO (Sigma) stimulation, lysed in 0.5% NP-40 lysis buffer and immunoblotted with anti-FLAG-HRP (Sigma). For β2AR ubiquitination, β2ARt or wt-β2AR expressing cells were first incubated with 10 μM alprenolol antagonist (Sigma) for 15 min (to reduce constitutive background ubiquitination), stimulated with 10 μM ISO and lysed in buffer supplemented with 10 mM N-ethylmaleimide (NEM; Sigma) to inhibit deubiquitinase activity. Anti-FLAG EZview beads (Sigma) used for the IP were subjected to three 10 min washes with lysis buffer and resuspended in 50 μl 2βLDS sample buffer (Invitrogen) containing 10% β-mercaptoethanol (Sigma) and analyzed by immunoblotting.

β2AR = experiment: Immunoblot of β2AR protein in human airway smooth muscle (HASM) cells; conditions: 20 μM isoproterenol for 2 d; vs non targeting shRNA
Method: Error bars represented the standard deviations; Student t-test * p<0.05, n=2. […] Indirect Immunofluorescence staining of β2AR and phase contract images are shown.
Three days after the inhibitor treatment cell lysates were collected and analyzed by immunoblotting. Three repeats were done with similar results.
Immunoblot analysis. 48 h post DNA transfection, cells were wash with PBS and lysed with NP-40 lysing buffer (50 mM Tris-HCl pH7.5, 150 mM NaCl, 0.5% Nonidet P-40) containing protease inhibitor cocktail (Roche). Protein samples were separated on NuPAGE 10% Bis-Tris gels (Invitrogen) and transferred to nitrocellulose membranes (Bio-Rad). Immunoblot signals were developed using SuperSignal West Pico Chemiluminescent Substrate (Pierce, Rockford, Ill., USA) and quantified by a Luminescence Imager or exposed to X-ray films.

NCCCC(O)(P(=O)([O-])O)P(=O)(O)O.[Na+] [alendronate, (4-amino-1-hydroxybutylidene)bisphosphonic acid monosodium salt]
amount of cell surface β2AR (cell surface β2AR [1]; 50 μM alendronate alone for 1 d): increased the amount of cell surface β2AR | cell surface β2AR levels before and after agonist induction (cell surface β2AR [1]; 50 μM for 1 d, then 10 μM isoproterenol 1 h): increased the cell surface β2AR levels both before and after agonist induction | cell surface β2AR levels after agonist induction (cell surface β2AR [2]; 50 or 500 μM for 1 d, then 10 μM isoproterenol 3 h): dose dependent increase of the cell surface β2AR levels | surface β2AR levels prior and post agonist induction (cell surface β2AR [2]; treatment for 2 days, data not shown): increase the surface β2AR levels | effect on cellular cholesterol (cellular cholesterol; 50 μM ALN or 100 μg/mL pravastatin for 1 d, serum containing medium): neither alendronate nor pravastatin could significantly lower the cellular cholesterol | effect on cellular cholesterol (cellular cholesterol; 50 μM for 1 d, serum-free medium): not sufficient to lower cellular cholesterol

CC(C)CCC[C@@H](C)[C@H]1CC[C@H]2[C@@H]3CC=C4C[C@@H](O)CC[C@]4(C)[C@H]3CC[C@]12C [cholesterol]
effect on FDPS blockade of β2AR down-regulation (cell surface β2AR [1]; cholesterol supplementation (FIG. 6A)): reverses the effects of FDPS blockade

CC(C)NCC(O)c1ccc(O)c(O)c1 (stereo not drawn) [isoproterenol]
decrease of stiffness compared to baseline ([3]; FDPS knockdown (sample) cells): ~15% | decrease of stiffness compared to baseline ([3]; control cells): ~40%

CC[C@H](C)C(=O)O[C@H]1C[C@H](O)C=C2C=C[C@H](C)[C@H](CC[C@@H](O)C[C@@H](O)CC(=O)O)[C@H]21 [pravastatin]
effect on amount of cell surface β2AR (cell surface β2AR [1]; 100 μg/mL for 1 d): no significant effect | effect on amount of cell surface β2AR (cell surface β2AR [2]; 100 μg/mL for 1 d): no significant effect | cellular cholesterol lowering (cellular cholesterol; 1 μg/mL for 1 d, serum-free medium): 19.9%

AA496068 EST shRNA: shRNA TCTGCATTTCCTGTAATTTTGCATGC (SEQ ID NO: 2) targeting EST AA496068 upstream of latrophilin 2
cell surface β2AR, mean fluorescence intensity (cell surface β2AR [2]; β2ARt-expressing 293 cells, vehicle or ISO 16 h, vs non-targeting shRNA): An increase in the mean fluorescence intensity values

ARRDC3-specific shRNA: shRNA sequence CCACAGACACCACTCGCTACCTCATT (SEQ ID NO: 24)
higher level of cell surface receptor after agonist stimulation (cell surface β2AR [2]; β2ARt cells, vs non-targeting shRNA): > 20%

CaMKK2 siRNA #1: 5′ GCUCCUAUGGUGUCGUCAAdTdT (SEQ ID NO: 32), MISSION siRNA from Sigma (GCUCCUAUGGUGUCGUCAATT; further chemistry not given here)
knockdown of CaMKK2 expression (CaMKK2): about 90%

CaMKK2 siRNA #2: 5′ UUGACGACACCAUAGGAGCdTdT (SEQ ID NO: 33), MISSION siRNA from Sigma (UUGACGACACCAUAGGAGCTT; further chemistry not given here)
knockdown of CaMKK2 expression (CaMKK2): about 90%

FDPS-specific shRNA: lentiviral shRNA clone, hairpin sequence 5′-AGCGGAGAAAGTGACCTAGAGATTG-3′ (SEQ ID NO: 20) (AGCGGAGAAAGTGACCTAGAGATTG)
baseline elastic modulus (t=0) ([3]; FDPS knockdown cells vs control cells): approximately two times lower | down regulation of FDPS mRNA level (knockdown efficiency) (FDPS): about 10% | amount of β2AR by immunoblot (β2ARt): increased amount of β2AR | total amount of β2AR (β2AR): upregulation of β2AR

FDPS-specific siRNA: sense 5′-cca ugu aca ugg cag gaa u(dT)(dT)-3′, antisense 5′-auu ccu gcc aug uac aug g(dT)(dT)-3′, from Sigma-Aldrich (sense CCAUGUACAUGGCAGGAAU; antisense AUUCCUGCCAUGUACAUGG; RNA, 3' dTdT, backbone not given here)
down regulation of FDPS mRNA level (knockdown efficiency) (FDPS): about 80% | increase in cell surface β2AR (cell surface β2AR [2]; both prior and post agonist induction (10 μM isoproterenol 1 or 3 h), vs non-targeting control siRNA): about 2 fold

Methyl-beta-cyclodextrin [MbCD]
cell surface β2AR post agonist induction (cell surface β2AR [2]; 1 or 2 mM for 1 h, then 10 μM isoproterenol 1 h): increased amount of cell surface β2AR post agonist induction | cellular cholesterol lowering (cellular cholesterol; 2 mM for 1 h, medium containing 10% FBS): 35.3%
